Assay results reported in PMC9103758 (International Journal of Molecular Sciences, 2022).
Where “and” joins values, the source holds several entries; their conditions need not be identical. Identical values can stand only once. Like-named read-outs stand apart in the source and are kept apart here.

Tests used:
human CFTR = target: T1, human CFTR (Homo sapiens, UniProt P13569); assay: Apical membrane current of CFTR in FRT cells expressing human CFTR; format: cell-based; conditions: 20 μM
T1 construct: expressed in transfected cells; host or cells: Fisher rat thyroid (FRT) cells
Source text: […]. (C) Summary of dose-response (mean ± S.E., n = 5). […]. (F) Summary of dose−response (mean ± S.E., n = 6).
Snapwell inserts containing ANO1(abc) or CFTR-expressing FRT cells were mounted in Ussing chambers (Physiological Instruments, San Diego, CA). The basolateral hemichamber was filled with buffer solution (in mM): 120 NaCl, 5 KCl, 1 MgCl2, 1 CaCl2, 10 D-glucose, 2.5 HEPES, and 25 NaHCO3 (pH 7.4). The apical hemichamber was filled with buffer solution (in mM): 60 NaCl, 60 Na-gluconate, 5 KCl, 1 MgCl2, 1 CaCl2, 10 D-glucose, 2.5 HEPES, and 25 NaHCO3 (pH 7.4). FRT cells were bathed for a 10 min stabilization period and gassed with 5% CO2 and 95% O2 at 37 °C. The apical membrane current was recorded with an EVC4000 Multi-Channel V/I Clamp (World Precision Instruments, Sarasota, FL, USA) and a PowerLab 4/35 (AD Instruments, Castle Hill, Australia).

human ANO2 = target: T2, human ANO2 (Homo sapiens, UniProt Q9NQ90); assay: YFP fluorescence quenching assay in FRT cells expressing human ANO2; format: cell-based; conditions: 30 μM, ANO2 activated by 100 μM ATP
T2 construct: expressed in transfected cells; host or cells: Fisher rat thyroid (FRT) cells
T2 sequence (Q9NQ90 1-998): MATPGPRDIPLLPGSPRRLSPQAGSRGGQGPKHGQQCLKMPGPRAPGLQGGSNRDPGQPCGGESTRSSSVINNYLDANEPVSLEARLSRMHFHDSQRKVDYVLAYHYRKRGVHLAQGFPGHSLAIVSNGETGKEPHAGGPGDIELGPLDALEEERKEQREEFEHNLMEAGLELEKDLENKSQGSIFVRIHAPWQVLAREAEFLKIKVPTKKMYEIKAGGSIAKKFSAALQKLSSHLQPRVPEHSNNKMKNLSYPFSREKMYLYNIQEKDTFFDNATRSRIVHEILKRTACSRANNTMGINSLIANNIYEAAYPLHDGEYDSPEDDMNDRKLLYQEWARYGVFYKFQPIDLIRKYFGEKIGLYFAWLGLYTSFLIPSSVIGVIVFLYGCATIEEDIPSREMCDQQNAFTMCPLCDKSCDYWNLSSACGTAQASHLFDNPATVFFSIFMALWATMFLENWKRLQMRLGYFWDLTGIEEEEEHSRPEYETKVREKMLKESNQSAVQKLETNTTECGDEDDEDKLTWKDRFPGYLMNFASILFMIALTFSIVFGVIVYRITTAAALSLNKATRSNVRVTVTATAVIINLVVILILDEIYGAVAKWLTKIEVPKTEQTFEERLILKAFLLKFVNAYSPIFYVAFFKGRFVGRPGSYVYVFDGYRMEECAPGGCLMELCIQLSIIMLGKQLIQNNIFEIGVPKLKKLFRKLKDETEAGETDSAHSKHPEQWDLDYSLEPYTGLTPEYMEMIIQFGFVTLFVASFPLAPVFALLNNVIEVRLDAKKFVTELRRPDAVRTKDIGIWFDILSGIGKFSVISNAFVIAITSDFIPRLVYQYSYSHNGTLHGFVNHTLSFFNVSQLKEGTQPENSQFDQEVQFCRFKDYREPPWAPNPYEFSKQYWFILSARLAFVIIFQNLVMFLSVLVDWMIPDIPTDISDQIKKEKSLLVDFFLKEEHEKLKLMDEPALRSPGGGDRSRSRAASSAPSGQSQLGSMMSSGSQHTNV
Protocol: ANO2 activity was measured using YFP fluorescence quenching assay in FRT cells expressing human ANO2.
(D) Representative YFP fluorescence traces in FRT cells expressing human ANO2.

VRAC [1] = target: T3, VRAC (Homo sapiens, UniProt Q8IWT6); assay: cell-based; conditions: VRAC IC50, YFP fluorescence quenching, LN215 cells, hypotonic solution 5 min, n = 4
T3 sequence (Q8IWT6 1-810): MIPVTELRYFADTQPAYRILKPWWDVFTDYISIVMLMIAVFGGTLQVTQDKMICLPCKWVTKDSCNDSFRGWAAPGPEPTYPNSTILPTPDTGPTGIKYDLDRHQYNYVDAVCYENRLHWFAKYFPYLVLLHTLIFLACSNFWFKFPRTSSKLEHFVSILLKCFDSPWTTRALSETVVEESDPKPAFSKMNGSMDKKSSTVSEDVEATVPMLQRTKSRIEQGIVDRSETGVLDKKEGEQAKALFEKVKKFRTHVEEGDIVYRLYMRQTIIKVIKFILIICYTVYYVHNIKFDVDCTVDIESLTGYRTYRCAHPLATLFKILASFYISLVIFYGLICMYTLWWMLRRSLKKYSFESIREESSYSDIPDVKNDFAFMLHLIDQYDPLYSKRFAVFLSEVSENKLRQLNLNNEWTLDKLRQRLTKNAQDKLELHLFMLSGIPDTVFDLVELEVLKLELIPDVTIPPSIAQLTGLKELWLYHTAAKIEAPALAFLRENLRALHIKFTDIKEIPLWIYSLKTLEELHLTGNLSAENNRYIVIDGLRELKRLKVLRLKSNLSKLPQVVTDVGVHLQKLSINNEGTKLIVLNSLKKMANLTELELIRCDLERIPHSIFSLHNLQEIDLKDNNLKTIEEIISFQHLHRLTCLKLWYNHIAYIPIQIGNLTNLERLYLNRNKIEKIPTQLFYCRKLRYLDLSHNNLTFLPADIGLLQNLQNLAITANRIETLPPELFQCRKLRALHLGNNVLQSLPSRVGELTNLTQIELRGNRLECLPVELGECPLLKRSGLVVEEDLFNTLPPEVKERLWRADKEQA

ANO1 = target: T4, ANO1 (Homo sapiens, UniProt Q5XXA6, DEL476-501); assay: YFP fluorescence quenching assay for ANO1 activity in FRT-ANO1 cells; format: cell-based; conditions: ATP 100 μM, n = 4
T4 construct: expressed in transfected cells; host or cells: Fisher rat thyroid (FRT) cells; The YFP assay uses FRT-ANO1-YFP cells, which also carry the halide sensor
T4 sequence (Q5XXA6 with tags, fused parts or gaps isoform Q5XXA6-5 DEL539-564): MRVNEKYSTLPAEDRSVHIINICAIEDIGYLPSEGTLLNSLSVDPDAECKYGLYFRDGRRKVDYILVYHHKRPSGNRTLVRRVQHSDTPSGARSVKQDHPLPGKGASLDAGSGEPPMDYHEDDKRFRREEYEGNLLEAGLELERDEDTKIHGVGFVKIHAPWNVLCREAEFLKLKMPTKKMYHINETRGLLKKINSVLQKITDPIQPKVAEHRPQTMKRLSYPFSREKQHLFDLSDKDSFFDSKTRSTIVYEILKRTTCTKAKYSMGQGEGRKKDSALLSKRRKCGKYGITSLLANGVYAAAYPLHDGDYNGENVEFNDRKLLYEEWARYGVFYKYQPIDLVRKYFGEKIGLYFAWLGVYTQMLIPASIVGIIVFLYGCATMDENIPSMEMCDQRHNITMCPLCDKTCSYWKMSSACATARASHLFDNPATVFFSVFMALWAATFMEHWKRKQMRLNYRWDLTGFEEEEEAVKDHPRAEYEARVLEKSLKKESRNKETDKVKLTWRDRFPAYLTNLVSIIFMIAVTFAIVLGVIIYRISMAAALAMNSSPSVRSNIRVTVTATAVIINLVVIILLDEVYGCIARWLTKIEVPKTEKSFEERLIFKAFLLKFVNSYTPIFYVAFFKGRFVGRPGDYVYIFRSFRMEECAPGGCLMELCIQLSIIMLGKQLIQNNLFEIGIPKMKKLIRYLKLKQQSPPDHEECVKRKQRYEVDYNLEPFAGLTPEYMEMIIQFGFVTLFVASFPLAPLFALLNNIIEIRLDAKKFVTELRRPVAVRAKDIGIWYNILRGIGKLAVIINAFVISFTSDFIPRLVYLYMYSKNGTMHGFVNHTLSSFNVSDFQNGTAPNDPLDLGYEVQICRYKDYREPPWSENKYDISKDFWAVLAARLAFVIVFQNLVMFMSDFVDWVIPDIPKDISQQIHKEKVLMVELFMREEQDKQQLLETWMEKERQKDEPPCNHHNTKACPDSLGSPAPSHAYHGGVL
Protocol: Figure 2 Inhibitory effects of VI-101, VI-201 and VI-301 on VRAC and ANO1. (A–C) Representative YFP fluorescence traces for VRAC activity. LN215 cells were treated with the indicated concentrations of VI-101, VI-201 and VI-301 with hypotonic solution for 5 min. (D) Dose-response curve of VRAC inhibition (mean ± S.E., n = 4). (E–G) Representative YFP fluorescence traces for ANO1 activity. […]. (H) Dose-response curve of ANO1 inhibition (mean ± S.E., n = 4).
Human ANO1(abc) expressing Fisher rat thyroid (FRT) cells, ANO2 expressing FRT cells, and human CFTR expressing FRT cells were cultured as described in a previous study. LN215 cells were stably transfected with the halide sensor YFP-F46L/H148Q/I152 and NIH-3T3 cells cultured in DMEM were supplemented with 10% FBS, 2 mM L-glutamine, 100 units/mL penicillin, and 100 μg/mL streptomycin. HEK293T cells were stably transfected with the human Kv11.1 (hERG) and cultured in DMEM supplemented with 10% FBS, 2 mM L-glutamine, 100 units/mL penicillin, and 100 μg/mL streptomycin. PC3, HT29, and HeLa cells were stably transfected with the halide sensor YFP-F46L/H148Q/I152 and cultured in RPMI 1640 supplemented with 10% FBS, 2 mM L-glutamine, 100 units/mL penicillin, and 100 μg/mL streptomycin. […]

VRAC [2] = target: T3, VRAC; conditions: read-out: VRAC IC50; YFP fluorescence quenching, LN215 cells, hypotonic solution 5 min, n = 4

T1 sequence (P13569 whole entry): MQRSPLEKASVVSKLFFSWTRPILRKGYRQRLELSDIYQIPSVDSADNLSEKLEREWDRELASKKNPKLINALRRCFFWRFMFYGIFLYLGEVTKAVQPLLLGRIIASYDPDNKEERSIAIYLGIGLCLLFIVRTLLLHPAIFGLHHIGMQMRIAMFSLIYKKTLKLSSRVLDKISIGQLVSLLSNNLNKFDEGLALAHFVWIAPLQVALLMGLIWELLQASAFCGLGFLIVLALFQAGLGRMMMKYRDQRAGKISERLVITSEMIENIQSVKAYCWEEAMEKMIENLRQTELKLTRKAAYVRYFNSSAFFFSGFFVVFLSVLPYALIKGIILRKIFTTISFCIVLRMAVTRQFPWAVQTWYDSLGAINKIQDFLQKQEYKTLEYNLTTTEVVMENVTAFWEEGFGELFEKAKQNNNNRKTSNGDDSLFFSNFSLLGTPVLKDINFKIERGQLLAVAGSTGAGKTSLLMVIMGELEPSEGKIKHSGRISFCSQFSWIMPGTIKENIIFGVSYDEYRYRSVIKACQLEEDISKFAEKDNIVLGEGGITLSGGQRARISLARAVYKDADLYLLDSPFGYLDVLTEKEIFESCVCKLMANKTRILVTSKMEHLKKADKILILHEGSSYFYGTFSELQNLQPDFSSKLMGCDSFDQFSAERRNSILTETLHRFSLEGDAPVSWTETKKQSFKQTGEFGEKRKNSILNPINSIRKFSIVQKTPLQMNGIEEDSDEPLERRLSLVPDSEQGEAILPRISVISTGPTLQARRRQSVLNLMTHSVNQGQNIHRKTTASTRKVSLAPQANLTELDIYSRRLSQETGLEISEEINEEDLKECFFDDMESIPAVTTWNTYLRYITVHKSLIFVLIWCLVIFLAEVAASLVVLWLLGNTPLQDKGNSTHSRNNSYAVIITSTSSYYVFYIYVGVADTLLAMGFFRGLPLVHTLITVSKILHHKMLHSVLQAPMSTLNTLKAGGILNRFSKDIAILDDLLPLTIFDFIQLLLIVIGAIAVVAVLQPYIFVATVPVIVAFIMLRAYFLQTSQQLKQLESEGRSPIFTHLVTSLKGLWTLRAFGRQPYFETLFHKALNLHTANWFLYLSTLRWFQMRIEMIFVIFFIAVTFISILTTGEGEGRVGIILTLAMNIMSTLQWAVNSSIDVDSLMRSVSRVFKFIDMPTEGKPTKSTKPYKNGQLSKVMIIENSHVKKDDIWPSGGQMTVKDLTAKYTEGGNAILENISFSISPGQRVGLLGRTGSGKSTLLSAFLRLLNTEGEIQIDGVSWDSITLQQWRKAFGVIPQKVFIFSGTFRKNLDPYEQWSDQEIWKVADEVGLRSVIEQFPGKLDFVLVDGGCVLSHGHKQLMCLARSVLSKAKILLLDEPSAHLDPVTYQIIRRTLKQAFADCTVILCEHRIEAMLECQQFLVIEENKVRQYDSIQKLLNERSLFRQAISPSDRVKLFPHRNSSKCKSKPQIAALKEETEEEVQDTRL

SMILES: O=C(O)c1ccc(/C=C2\SC(=S)N(c3cccc(C(F)(F)F)c3)C2=O)cc1 [CFTRinh−172]
- block of CFTR (human CFTR): completely blocked

SMILES: CCc1c(C)nc(SCC(=O)Nc2nc(-c3ccc(OC)cc3)cs2)[nH]c1=O [T16Ainh-A01, reference compound]
- block of ANO2 (human ANO2): completely blocked

SMILES: O=c1oc2ccccc2c(O)c1C(c1cc([N+](=O)[O-])ccc1Cl)c1c(O)c2ccccc2oc1=O [VI-101]
- IC50 (VRAC [1]): 3.3 µM
- IC50 (ANO1): 3.2 µM

SMILES: O=c1oc2ccccc2c(O)c1C(c1ccc(Cl)c([N+](=O)[O-])c1)c1c(O)c2ccccc2oc1=O [VI-102]
- IC50 (VRAC [1]): 0.8 µM
- IC50 (ANO1): 3 µM

SMILES: O=c1oc2ccccc2c(O)c1C(c1cc([N+](=O)[O-])c(Cl)cc1Cl)c1c(O)c2ccccc2oc1=O [VI-103]
- IC50 (VRAC [1]): 3.3 µM
- IC50 (ANO1): 3.2 µM

SMILES: O=c1oc2ccccc2c(O)c1C(c1cc([N+](=O)[O-])cc([N+](=O)[O-])c1Cl)c1c(O)c2ccccc2oc1=O [VI-104]
- IC50 (VRAC [1]): 30 µM
- IC50 (ANO1): 37.9 µM

SMILES: O=c1oc2ccccc2c(O)c1C(c1cccc([N+](=O)[O-])c1)c1c(O)c2ccccc2oc1=O [VI-105]
- IC50 (VRAC [1]): 4.9 µM
- IC50 (ANO1): 3.8 µM

SMILES: CN(C)c1ccc(C(c2c(O)c3ccccc3oc2=O)c2c(O)c3ccccc3oc2=O)cc1[N+](=O)[O-] [VI-106]
- IC50 (VRAC [1]): 1.3 µM
- IC50 (ANO1): 3.6 µM

SMILES: O=c1oc2ccccc2c(O)c1C(c1ccccc1)c1c(O)c2ccccc2oc1=O [VI-107]
- IC50 (ANO1): 95.2 µM
- IC50 (VRAC [2]): 103 µM

SMILES: O=c1oc2ccccc2c(O)c1C(c1ccncc1)c1c(O)c2ccccc2oc1=O [VI-108]
- IC50 (VRAC [1]): 17 µM
- IC50 (ANO1): 34.7 µM

SMILES: O=c1oc2ccccc2c(O)c1C(c1ccccc1Cl)c1c(O)c2ccccc2oc1=O [VI-109]
- IC50 (VRAC [1]): 0.9 µM
- IC50 (ANO1): 2 µM

SMILES: O=c1oc2ccccc2c(O)c1C(c1ccccc1F)c1c(O)c2ccccc2oc1=O [VI-110]
- IC50 (VRAC [1]): 0.58 µM and 0.6 µM
- IC50 (ANO1): 4.8 µM

SMILES: CCN(CC)c1ccc(C(c2c(O)c3ccccc3oc2=O)c2c(O)c3ccccc3oc2=O)cc1 [VI-111]
- IC50 (VRAC [1]): 2.9 µM
- IC50 (ANO1): 3.2 µM

SMILES: CC(C)Oc1ccc(C(c2c(O)c3ccccc3oc2=O)c2c(O)c3ccccc3oc2=O)cc1 [VI-112]
- IC50 (VRAC [1]): 1.4 µM
- IC50 (ANO1): 0.8 µM

SMILES: O=c1oc2ccccc2c(O)c1C(c1ccc2c(c1)OCO2)c1c(O)c2ccccc2oc1=O [VI-113]
- IC50 (VRAC [1]): 1.9 µM
- IC50 (ANO1): 3.9 µM

SMILES: O=c1oc2ccccc2c(O)c1C(c1cc2c(cc1[N+](=O)[O-])OCO2)c1c(O)c2ccccc2oc1=O [VI-114]
- IC50 (VRAC [1]): 10.6 µM
- IC50 (ANO1): 20.3 µM

SMILES: O=c1oc2ccccc2c(O)c1C(c1ccc(O)c(O)c1)c1c(O)c2ccccc2oc1=O [VI-115]
- IC50 (VRAC [1]): 47.9 µM
- IC50 (ANO1): 61.6 µM

SMILES: CCOc1cc(C(c2c(O)c3ccccc3oc2=O)c2c(O)c3ccccc3oc2=O)ccc1O [VI-117]
- IC50 (VRAC [1]): 6.8 µM
- IC50 (ANO1): 14.2 µM

SMILES: COc1ccc(C(c2c(O)c3ccccc3oc2=O)c2c(O)c3ccccc3oc2=O)cc1OC [VI-118]
- IC50 (VRAC [1]): 4 µM
- IC50 (ANO1): 14.2 µM

SMILES: CCOc1ccc(C(c2c(O)c3ccccc3oc2=O)c2c(O)c3ccccc3oc2=O)cc1OC [VI-119]
- IC50 (VRAC [1]): 12 µM
- IC50 (ANO1): 4.9 µM

SMILES: COc1cc(OC)cc(C(c2c(O)c3ccccc3oc2=O)c2c(O)c3ccccc3oc2=O)c1 [VI-120]
- IC50 (VRAC [1]): 9.3 µM
- IC50 (ANO1): 3.9 µM
